A short description of series [1]: Stability in mouse liver S9 fractions. It counts as in vitro ADME.
The nature of series [2]: Stability in human primary hepatocytes. The format is in vitro ADME.
In series [3] the target is T1, nLuc-RIPK1 fusion protein (Homo sapiens, UniProt Q13546).
T1 construct: expressed in transfected cells
T1 sequence (Q13546 1-671): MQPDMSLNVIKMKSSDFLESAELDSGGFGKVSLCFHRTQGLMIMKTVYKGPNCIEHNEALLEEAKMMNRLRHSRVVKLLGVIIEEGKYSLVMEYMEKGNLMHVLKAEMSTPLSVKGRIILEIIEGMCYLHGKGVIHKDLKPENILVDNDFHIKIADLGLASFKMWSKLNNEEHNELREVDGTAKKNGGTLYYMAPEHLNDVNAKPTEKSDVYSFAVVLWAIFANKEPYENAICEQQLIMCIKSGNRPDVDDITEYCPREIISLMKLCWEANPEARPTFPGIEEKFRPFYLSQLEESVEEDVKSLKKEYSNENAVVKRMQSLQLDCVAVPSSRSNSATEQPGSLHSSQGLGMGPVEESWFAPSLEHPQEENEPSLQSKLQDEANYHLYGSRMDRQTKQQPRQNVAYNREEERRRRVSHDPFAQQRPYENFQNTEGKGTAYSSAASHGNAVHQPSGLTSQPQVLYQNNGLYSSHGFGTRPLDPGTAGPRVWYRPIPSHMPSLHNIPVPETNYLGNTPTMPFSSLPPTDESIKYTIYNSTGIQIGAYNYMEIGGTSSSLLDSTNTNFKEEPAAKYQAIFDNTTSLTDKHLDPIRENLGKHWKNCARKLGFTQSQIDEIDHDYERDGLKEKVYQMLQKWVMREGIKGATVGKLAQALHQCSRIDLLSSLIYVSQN
The series can be described thus: NanoBRET based in-cell RIPK1 target engagement. As for the experimental part: Figure 2 LD4172, a RIPK1 PROTAC, induces potent and highly specific degradation of RIPK1 in a panel of cell lines. A, Chemical structures of RIPK1 PROTAC, LD4172, and its negative control, LD4172-NC. […] B, Quantification of RIPK1 levels in both Jurkat and B16F10 cells treated with LD4172 at indicated concentrations for 24 h, followed by Western blotting. C, DC50 and Dmax of LD4172 in various human and mouse cell lines. DC50, the drug concentration causing 50% protein degradation; Dmax, the maximum level of protein degradation. D, RIPK1 degradation kinetics induced by LD4172 treatment (1 μM) and resynthesis kinetics upon washout of LD4172 in both Jurkat and B16F10 cells. E, Quantification of D. The degradation half-life of RIPK1 induced by LD4172 (1 μM) is <2 h in Jurkat and B16F10 cells. […] F, NanoBRET based in-cell RIPK1 target engagement. HEK293 cells were transfected with a plasmid expressing nLuc-RIPK1 fusion protein for 24 h, followed by incubating with a RIPK1 NanoBRET tracer (500 nM) and different concentrations of LD4172 and LD4172-NC (n=3). G, Time-resolved fluorescence resonance energy transfer (TR-FRET) based biochemical binding assay for RIPK1. GST-tagged human RIPK1 (1 nM), Tb-labeled anti-GST antibody (0.3 nM), a RIPK1 TR-FRET tracer (350 nM) and different concentrations of LD4172 (n=3) were incubated for 2 hours, followed by TR-FRET measurements with an excitation wavelength at 340 nm and emission wavelengths at 495 and 520 nm. H, NanoBRET based in-cell assay for ternary complex formation. HEK293T cells were co-transfected with nLuc-RIPK1 and VHL-HaloTag plasmids for 24 h, followed by treatment with indicated concentrations of LD4172 or LD4172-NC (n=3). I, LD4172 induced RIPK1 degradation depends on ternary complex formation, neddylation and proteasome activity. Representative immunoblots of RIPK1 in both Jurkat and B16F10 cells. Cells were treated with RIPK1 inhibitor (T2I), VHL ligand, a neddylation inhibitor (MLN4924) or a proteasome inhibitor (Carfilzomib) at indicated concentrations for 4 hours, followed by LD4172 treatment for 4 hours. J, Proteome profiling of LD4172 induced protein degradation. MDA-MB- 231 cells were treated with LD4172 (200 nM) or LD4172-NC (200 nM) for 6 h (n=3). In total, ~10,000 proteins were quantified in the proteomics experiment. […] Blue dots represent kinases that are inhibited by the warhead of LD4172 but not degraded by LD4172.
To elucidate the formation of a binary complex during RIPK1 degradation, we developed a competitive NanoBRET (Nano-Bioluminescence Resonance Energy transfer)-based target engagement (TE) assay to quantify the binding between RIPK1 and LD4172 in cells[12],[13]. First, we developed a RIPK1 tracer by conjugating the LD4172 warhead T2I with a BODIPY-590 fluorescent dye, dubbed T2–590 (refer to Supporting Information for details). The dissociation equilibrium constant (Kd) between the tracer and RIPK1 was determined to be 0.5 μM by titrating the tracer in HEK293T cells expressing a nLuc-RIPK1 fusion protein. […] This is usually expected, considering that the large molecular weight of LD4172 may lead to poor cellular permeability.

What is called half-life is how long it takes for the measured level to halve. Low readings indicate fast loss, high ones slow loss. For orientation: IC50 means the midpoint of a concentration-inhibition curve.

Read-outs that look alike come from different tables or passages of the source.

Consider `Cc1ncsc1-c1ccc([C@H](C)NC(=O)[C@@H]2C[C@@H](O)CN2C(=O)[C@@H](NC(=O)CCCCCCCCCCC(=O)NCCCn2cc(-c3ccc4c(c3)CCN4C(=O)Cc3cccc(OC(F)(F)F)c3)c3c(N)ncnc32)C(C)(C)C)cc1` [LD4172], for which the half-life in series [1] was 9.7 min; in series [2] it was 56.3 min. Moreover, in series [1], the “intrinsic clearance (CLint)” value amounted to 71.6 μL·min^− 1·mg^− 1 protein. For the same compound, the Ki in series [3] (Cheng-Prusoff equation, read-out: apparent Ki between compound and RIPK1 in the cells) came to 1.9 µM. Moreover, the IC50 in series [3] (HEK293 cells, tracer 500 nM, n=3, read-out: IC50 (nM), Fig. 2F) was 3750 nM; in series [3] (tracer concentration at its Kd value, read-out: IC50, competition with tracer) it was 3700 nM.

Values taken from PMC11042424, “Development of a First-in-Class RIPK1 Degrader to Enhance Antitumor Immunity” (Research Square, 2024).
